{"source": "ChEMBL document CHEMBL3044729", "about": "“Quantitative structure-activity relationships of pine weevil antifeedants, a multivariate approach” (2007)"}
{"tested_on": "Hylobius abietis", "experiment": "Antifeedant activity against Hylobius abietis (pine weevil ) in compound pre-treated Scots pine twig at 50 mM measured after 24 hr by two-choice laboratory bioassay", "format": "functional", "units": {"AFI": "%"}}
{"smiles": "COc1cc(C(=O)O)cc(OC)c1O", "note": "[SYRINGIC ACID]", "AFI": 8}
{"smiles": "COC(=O)CCc1ccc(OC)c(Br)c1", "AFI": 68}
{"smiles": "COC(=O)CCc1ccc(N(C)C)cc1", "AFI": 84}
{"smiles": "COC(=O)c1ccc(OC)c(O)c1", "note": "[ISOVANILLIC ACID METHYL ESTER]", "AFI": 65}
{"smiles": "COC(=O)c1cccc(OC)c1OC", "note": "[METHYL 2,3-DIMETHOXYBENZOATE]", "AFI": 73}
{"smiles": "COC(=O)CCc1cccc(OC)c1OC", "AFI": 86}
{"smiles": "COc1cc(C(=O)O)ccc1O", "note": "[VANILLIC ACID]", "AFI": 48}
{"smiles": "CCNC(=O)c1cc(OC)cc(OC)c1", "AFI": 86}
{"smiles": "COC(=O)CCc1cc(OC)cc(OC)c1", "AFI": 89}
{"smiles": "CC/C=C/CCOC(=O)c1cc(OC)cc(OC)c1", "AFI": 62}
{"smiles": "COC(=O)c1ccc(O)cc1OC", "note": "[METHYL 4-HYDROXY-2-METHOXYBENZOATE]", "AFI": 35}
{"smiles": "COC(=O)c1cccc(OC)c1", "note": "[METHYL 3-METHOXYBENZOATE]", "AFI": 89}
{"smiles": "COC(=O)c1ccc2c(c1)OCO2", "note": "[METHYL 3,4-METHYLENEDIOXYBENZOATE]", "AFI": 57}
{"smiles": "COC(=O)c1cc(Br)cc(Br)c1", "note": "[METHYL 3,5-DIBROMOBENZOATE]", "AFI": 50}
{"smiles": "COC(=O)CCc1ccc(Br)cc1", "AFI": 97}
{"smiles": "CCCCCCCCc1ccc(C(=O)OC)cc1", "AFI": 35}
{"smiles": "COC(=O)CCc1ccc(OC)cc1", "AFI": 96}
{"smiles": "COC(=O)c1cccc(O)c1OC", "note": "[METHYL 3-HYDROXY-2-METHOXYBENZOATE]", "AFI": 75}
{"smiles": "COC(=O)c1c(C)cc(O)c(C)c1O", "note": "[ATRARIC ACID]", "AFI": 31}
{"smiles": "COC(=O)c1ccc(OC)c(OC)c1OC", "note": "[METHYL 2,3,4-TRIMETHOXYBENZOATE]", "AFI": 54}
{"smiles": "CCOC(=O)C(Br)C(Br)c1ccccc1", "note": "(racemic; form 1)", "AFI": 75}
{"smiles": "COC(=O)CCc1ccc(C)cc1C", "AFI": 100}
{"smiles": "COC(=O)/C=C/c1ccc([N+](=O)[O-])cc1", "AFI": 32}
{"smiles": "COc1ccc(CCC(=O)OC(C)C)cc1", "AFI": 83}
{"smiles": "COC(=O)CCc1ccc(F)cc1", "AFI": 98}
{"smiles": "CCOC(=O)CCc1ccccc1", "note": "[ETHYL 3-PHENYLPROPANOATE]", "AFI": 73}
{"smiles": "COC(=O)c1cc(C)cc(C)c1", "note": "[METHYL 3,5-DIMETHYLBENZOATE]", "AFI": 61}
{"smiles": "COC(=O)/C=C/c1ccc(C)cc1", "AFI": 76}
{"smiles": "COc1cc(OC)cc(C(=O)O)c1", "note": "[3,5-DIMETHOXYBENZOIC ACID]", "AFI": -4}
{"smiles": "COC(=O)c1c(OC)cc(OC)cc1OC", "note": "[METHYL 2,4,6-TRIMETHOXYBENZOATE]", "AFI": 55}
{"smiles": "CCOC(=O)CC(O)c1ccccc1", "note": "(racemic)", "AFI": 36}
{"smiles": "COc1cc(OC)cc(C(=O)OCCCc2ccc(OC)c(OC)c2)c1", "AFI": 41}
{"smiles": "COC(=O)CCc1ccc(OC)c(OC)c1", "AFI": 35}
{"smiles": "CCC(C)OC(=O)/C=C/c1ccccc1", "note": "(stereo not drawn) [SEC-BUTYL CINNAMATE]", "AFI": 48}
{"smiles": "COc1cc(OC)cc(C(=O)OCC(F)(F)F)c1", "AFI": 86}
{"smiles": "COC(=O)CCc1ccc(N)cc1", "AFI": 29}
{"smiles": "COC(=O)c1cc([N+](=O)[O-])cc([N+](=O)[O-])c1", "note": "[METHYL 3,5-DINITROBENZOATE]", "AFI": 34}
{"smiles": "COc1ccccc1CCC(=O)O", "AFI": 12}
{"smiles": "COC(=O)CCc1cccc(OC)c1", "AFI": 95}
{"smiles": "CCSC(=O)c1cc(OC)cc(OC)c1", "AFI": 74}
{"smiles": "COC(=O)/C=C/c1ccc(C(C)C)cc1", "AFI": 92}
{"smiles": "COc1ccc(C(=O)OC(C)C)c(OC)c1", "note": "[ISOPROPYL 2,4-DIMETHOXYBENZOATE]", "AFI": 96}
{"smiles": "CCCCOc1ccc(CCC(=O)OC)cc1", "AFI": 70}
{"smiles": "COC(=O)/C=C/c1ccc(OC)c(OC)c1", "AFI": 36}
{"smiles": "COC(=O)c1cc(OC)ccc1OC", "note": "[METHYL 2,5-DIMETHOXYBENZOATE]", "AFI": 89}
{"smiles": "COC(=O)c1c(O)cccc1OC", "note": "[METHYL 2-HYDROXY-6-METHOXYBENZOATE]", "AFI": 74}
{"smiles": "COC(=O)/C=C/c1ccc(C(F)(F)F)cc1", "AFI": 62}
{"smiles": "O=C(O)c1ccc(O)cc1", "note": "[PARABEN]", "AFI": 31}
{"smiles": "COc1cc(C(N)=O)cc(OC)c1OC", "note": "[3,4,5-TRIMETHOXYBENZAMIDE]", "AFI": -2}
{"smiles": "O=C(O)c1ccccc1O", "note": "[SALICYLIC ACID]", "AFI": 21}
{"smiles": "C=CCc1ccc(OC(=O)c2cc(OC)cc(OC)c2)c(OC)c1", "AFI": 17}
{"smiles": "CC(=O)Oc1cc(C(=O)O)cc(OC(C)=O)c1OC(C)=O", "note": "[3,4,5-TRIACETOXYBENZOIC ACID]", "AFI": 14}
{"smiles": "COC(=O)c1ccccc1OC", "note": "[METHYL 2-METHOXYBENZOATE]", "AFI": 80}
{"smiles": "COC(=O)c1ccc(OC)cc1", "note": "[METHYL 4-METHOXYBENZOATE]", "AFI": 54}
{"smiles": "CCOC(=O)/C=C/c1ccccc1", "note": "[ETHYL CINNAMATE]", "AFI": 83}
{"smiles": "CC(C)OC(=O)c1ccc(O)cc1", "note": "[ISOPROPYL 4-HYDROXYBENZOATE]", "AFI": 63}
{"smiles": "COC(=O)C(C)Cc1ccccc1", "note": "(racemic)", "AFI": 79}
{"smiles": "COC(=O)CCc1ccccc1C", "AFI": 91}
{"smiles": "COC(=O)/C=C/c1ccc(OC)cc1OC", "AFI": 96}
{"smiles": "COC(=O)CCc1cc(OC)c(OC)c(OC)c1", "AFI": 26}
{"smiles": "COC(=O)c1ccc(OC)c(Cl)c1", "note": "[METHYL 3-CHLORO-4-METHOXYBENZOATE]", "AFI": 36}
{"smiles": "COC(=O)CCc1ccc(C)cc1", "AFI": 99}
{"smiles": "CCCCCCCCCCCCOC(=O)c1ccc(OC)c(OC)c1", "note": "[DODECYL 3,4-DIMETHOXYBENZOATE]", "AFI": 23}
{"smiles": "COC(=O)c1cc(O)cc(O)c1", "note": "[METHYL 3,5-DIHYDROXYBENZOATE]", "AFI": 23}
{"smiles": "COC(=O)CCc1ccc(Cl)cc1", "AFI": 100}
{"smiles": "CCCCOC(=O)/C=C/c1ccccc1", "note": "[BUTYL CINNAMATE]", "AFI": 38}
{"smiles": "Cc1ccccc1CCC(=O)O", "AFI": 47}
{"smiles": "COC(=O)/C=C/c1ccc(N(C)C)cc1", "AFI": 49}
{"smiles": "COC(=O)/C=C/c1cccc(OC)c1OC", "AFI": 99}
{"smiles": "COC(=O)c1cc(O)cc(OC)c1", "AFI": 54}
{"smiles": "COC(=O)c1cc(OC)cc(OC)c1", "note": "[METHYL 3,5-DIMETHOXYBENZOATE]", "AFI": 95}
{"smiles": "COC(=O)c1cc(O)ccc1OC", "AFI": -3}
{"smiles": "COC(=O)CCc1ccccc1OC", "AFI": 97}
{"smiles": "COC(=O)c1ccc(O)cc1O", "note": "[METHYL 2,4-DIHYDROXYBENZOATE]", "AFI": 46}
{"smiles": "COC(=O)CCc1ccc(C(F)(F)F)cc1", "AFI": 57}
{"smiles": "COc1cccc(C(=O)O)c1O", "AFI": 22}
{"smiles": "COc1ccc(C(=O)O)c(O)c1", "note": "[4-METHOXYSALICYLIC ACID]", "AFI": 24}
{"smiles": "COC(=O)c1c(OC)cccc1OC", "note": "[METHYL 2,6-DIMETHOXYBENZOATE]", "AFI": 51}
{"smiles": "COC(=O)c1ccc(OC)cc1OC", "note": "[METHYL 2,4-DIMETHOXYBENZOATE]", "AFI": 99}
{"smiles": "O=C(O)c1cc(O)cc(O)c1", "note": "[3,5-DIHYDROXYBENZOIC ACID]", "AFI": 41}
{"smiles": "COC(=O)CCc1ccc(C(C)C)cc1", "AFI": 94}
{"smiles": "COc1ccc(C(=O)O)cc1OC", "note": "[VERATRIC ACID]", "AFI": 7}
{"smiles": "COC(=O)/C=C/c1cc(OC)cc(OC)c1", "AFI": 72}
{"smiles": "COC(=O)CCc1ccc(Cl)c(Cl)c1", "AFI": 98}
{"smiles": "COC(=O)c1cc(OC)ccc1O", "note": "[METHYL 2-HYDROXY-5-METHOXYBENZOATE]", "AFI": 74}
{"smiles": "CCOC(=O)C(Br)C(Br)c1ccccc1", "note": "(racemic; form 2)", "AFI": 45}
{"smiles": "COC(=O)c1ccc(O)c(O)c1", "note": "[METHYL PROTOCATECHUATE]", "AFI": -7}
{"smiles": "O=C(O)c1ccc2c(c1)OCO2", "note": "[PIPERONYLIC ACID]", "AFI": 14}
{"smiles": "COC(=O)c1cc(O)c(O)c(O)c1", "note": "[GALLIC ACID METHYL ESTER]", "AFI": 21}
{"smiles": "COc1ccc(O)c(C(=O)O)c1", "AFI": 17}
{"smiles": "COC(=O)CCc1cccc(C)c1", "AFI": 90}
{"smiles": "CCCOC(=O)/C=C/c1ccccc1", "note": "[PROPYL CINNAMATE]", "AFI": 85}
{"smiles": "COC(=O)c1ccc(O)cc1", "note": "[METHYLPARABEN]", "AFI": 34}
{"smiles": "COC(=O)CCc1ccc(O)c(OC)c1", "note": "[DIHYDROFERULIC ACID METHYL ESTER]", "AFI": 54}
{"smiles": "CC(C)OC(=O)/C=C/c1ccccc1", "note": "[ISOPROPYL CINNAMATE]", "AFI": 96}
{"smiles": "COC(=O)CCc1ccc(O)cc1", "note": "[4-HYDROXYHYDROCINNAMIC ACID METHYL ESTER]", "AFI": 21}
{"smiles": "COc1ccc(C(=O)O)cc1O", "note": "[ISOVANILLIC ACID]", "AFI": 51}
{"smiles": "COC(=O)c1cccc(OC)c1O", "note": "[METHYL 2-HYDROXY-3-METHOXYBENZOATE]", "AFI": 95}
{"smiles": "CCOC(=O)CC(O)c1ccccc1Br", "note": "(racemic)", "AFI": 59}
{"smiles": "COC(=O)C(Br)C(Br)c1ccccc1", "note": "(racemic)", "AFI": 50}
{"smiles": "COC(=O)c1ccc(O)c(OC)c1", "note": "[METHYL VANILLATE]", "AFI": 53}
{"smiles": "COC(=O)CCc1ccc(C(C)=O)cc1", "AFI": 14}
{"smiles": "COC(=O)CCc1ccccc1", "note": "[METHYL 3-PHENYLPROPANOATE]", "AFI": 44}
